Test results from the NIST ThermoML archive (doi:10.1021/je301014d).
Numbers after ± are expanded uncertainties.

How the values were obtained:
[1] = Molar enthalpy of transition or fusion; details: Crystal; DSC
[2] = Crystal; DTA

SMILES | Molar enthalpy of transition or fusion [1] | Normal melting temperature [2]
C[C@H]1OC(=O)[C@@H](C)OC1=O [(3R,6R)-3,6-dimethyl-1,4-dioxane-2,5-dione] | 3.87 ± 0.0956 kcal/mol | 97.23 ± 1.1 °C
C[C@@H]1OC(=O)[C@H](C)OC1=O [(3S,6S)-3,6-dimethyl-1,4-dioxane-2,5-dione] | 3.87 ± 0.0956 kcal/mol | 97.82 ± 1.1 °C
